≈ marks a conversion by molar mass, not a printed value.
Legend:
[1] = Chemical stability in PBS pH 6.5; type: physicochemical; details: for half-life: PBS pH 6.5; for Remaining Percentage (%) 0 min: PBS pH 6.5, 0 min; for Remaining Percentage (%) 30 min: PBS pH 6.5, 30 min; for Remaining Percentage (%) 60 min: PBS pH 6.5, 60 min; for Remaining Percentage (%) 120 min: PBS pH 6.5, 120 min; for Remaining Percentage (%) 240 min: PBS pH 6.5, 240 min
[2] = Plasma stability in mouse plasma; type: in vitro ADME; details: for half-life at 1 μM: test concentration 1 μM
Solubility in FaSSIF = type: physicochemical; details: read-out: SOL (μM) FaSSIF

| SMILES | half-life [1] [h] | Remaining Percentage (%) 0 min [1] [%] | Remaining Percentage (%) 30 min [1] [%] | Remaining Percentage (%) 60 min [1] [%] | Remaining Percentage (%) 120 min [1] [%] | Remaining Percentage (%) 240 min [1] [%] | Remaining Percentages (%) 0 min ([2]; 5 μM) [%] | Remaining Percentages (%) 30 min ([2]; 5 μM) [%] | Remaining Percentages (%) 120 min ([2]; 5 μM) [%] | half-life at 5 μM ([2]; test concentration 5 μM (control)) [h] | solubility (Solubility in FaSSIF) [µM] | Remaining Percentages (%) 0 min ([2]; 1 μM) [%] | Remaining Percentages (%) 15 min ([2]; 1 μM) [%] | Remaining Percentages (%) 30 min ([2]; 1 μM) [%] | Remaining Percentages (%) 60 min ([2]; 1 μM) [%] | Remaining Percentages (%) 120 min ([2]; 1 μM) [%] | half-life at 1 μM [2] [h] |
| --- | --- | --- | --- | --- | --- | --- | --- | --- | --- | --- | --- | --- | --- | --- | --- | --- | --- |
| O=C(O)Cc1ccccc1Nc1c(Cl)cccc1Cl [Diclofenac, reference compound] | 0.695 | 100.00 | 60.68 | 35.44 | 13.15 | 1.85 | 100 | 58.97 | 10.45 | 0.594 |  |  |  |  |  |  |  |
| COC(=S)N(C)C(C)Cc1ccc2c(c1)OCO2 (centres unmarked) [Prodrug 1, O-methyl (1-(benzo[d][1,3]dioxol-5-yl)propan-2-yl)(methyl)carbamothioate] | > 17.1 | 100.00 | 95.62 | 102.35 | 93.11 | 106.73 |  |  |  |  | 278 (≈ 74.4 µg/mL) | 100 | 108.17 | 96.20 | 103.37 | 100.00 | > 8.52 |
| COC(=S)NC(C)Cc1ccc2c(c1)OCO2 (centres unmarked) [Prodrug 2, O-methyl (1-(benzo[d][1,3]dioxol-5-yl)propan-2-yl)carbamothioate] | > 17.1 | 100.00 | 105.00 | 100.45 | 102.27 | 105.00 |  |  |  |  | 279 (≈ 70.8 µg/mL) | 100 | 101.54 | 99.62 | 96.35 | 91.94 | > 8.52 |
| CCOC(=S)N(C)C(C)Cc1ccc2c(c1)OCO2 (centres unmarked) [Prodrug 3, O-ethyl (1-(benzo[d][1,3]dioxol-5-yl)propan-2-yl)(methyl)carbamothioate] | > 17.1 | 100.00 | 100.73 | 95.33 | 99.99 | 91.16 |  |  |  |  | 131 (≈ 36.9 µg/mL) | 100 | 106.31 | 97.30 | 97.75 | 96.85 | > 8.52 |
| CCOC(=S)NC(C)Cc1ccc2c(c1)OCO2 (centres unmarked) [Prodrug 4, O-ethyl (1-(benzo[d][1,3]dioxol-5-yl)propan-2-yl)carbamothioate] | > 17.1 | 100.00 | 103.44 | 100.85 | 94.76 | 94.28 |  |  |  |  | 60.3 (≈ 16.1 µg/mL) | 100 | 100.00 | 100.28 | 97.80 | 95.32 | > 8.52 |

— patent US20250152553A1, “CARBAMOTHIOATE, AND CARBAMODITHIOATE DERIVATIVES OF MDMA, MDA OR ITS OPTICALLY ACTIVE (R)- OR (S)-MDMA AND MDA ISOMERS” (EmpathBio, Inc., priority 2023, published 2025)
